From PubChem BioAssay AID248 (DTP/NCI, 2004)
Inconclusive results and toxic doses are left out. Rule as the data show it: active = T/C of 150% or more; inactive = T/C below 125%.

Tested on: L1210 leukemia ip in BDF1 mice, survival T/C
Test: NCI In Vivo Anticancer Drug Screen. Data for tumor model L1210 Leukemia (intraperitoneal) in B6D2F1 (BDF1) mice
Settings: higher = longer survival
Procedure, shortened: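 Ratio derived from survival: compound-dosed mice over vehicle-dosed mice, all bearing a transplantable tumor.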

[1] = endpoint: mean survival time, dose: 100.0 mg/kg/injection, schedule: Q04DX003 (ip), vehicle: saline with Tween-80
[2] = endpoint: mean survival time, dose: 200.0 mg/kg/injection, schedule: Q04DX003 (ip), vehicle: saline with Tween-80
[3] = endpoint: mean survival time, dose: 100.0 mg/kg/injection, schedule: Q01DX009 (ip), vehicle: Klucel (hydroxypropylcellulose) (HPC)
[4] = endpoint: mean survival time, dose: 100.0 mg/kg/injection, schedule: Q04DX003 (ip), vehicle: Klucel (hydroxypropylcellulose) (HPC)
[5] = endpoint: mean survival time, dose: 200.0 mg/kg/injection, schedule: Q01DX009 (ip), vehicle: Klucel (hydroxypropylcellulose) (HPC)
[6] = endpoint: mean survival time, dose: 200.0 mg/kg/injection, schedule: Q04DX003 (ip), vehicle: Klucel (hydroxypropylcellulose) (HPC)
[7] = endpoint: mean survival time, dose: 400.0 mg/kg/injection, schedule: Q04DX003 (ip), vehicle: Klucel (hydroxypropylcellulose) (HPC)

Measured: T/C

CC1(C)C2CCC1(C)C(/C=N/NC(N)=O)C2 (centres undefined)
inactive: endpoint: mean survival time, dose: 100.0 mg/kg/injection, schedule: Q01DX001 (ip), vehicle: Klucel (hydroxypropylcellulose) (HPC) 94 % of control | endpoint: mean survival time, dose: 200.0 mg/kg/injection, schedule: Q01DX001 (ip), vehicle: Klucel (hydroxypropylcellulose) (HPC) 102 % of control | endpoint: mean survival time, dose: 400.0 mg/kg/injection, schedule: Q01DX001 (ip), vehicle: Klucel (hydroxypropylcellulose) (HPC) 105 % of control

O=C1c2ccccc2C(=O)N1CN1C(=O)c2ccccc2C1=O
inactive: [1] 88 % of control | [2] 91 % of control

O=S(c1ccccc1)c1ccc2cccccc1-2 (centres undefined)
inactive: endpoint: mean survival time, dose: 100.0 mg/kg/injection, schedule: Q01DX001 (ip), vehicle: carboxymethylcellulose (CMC) 91 % of control | endpoint: mean survival time, dose: 200.0 mg/kg/injection, schedule: Q01DX001 (ip), vehicle: carboxymethylcellulose (CMC) 94 % of control | endpoint: mean survival time, dose: 400.0 mg/kg/injection, schedule: Q01DX001 (ip), vehicle: carboxymethylcellulose (CMC) 100 % of control

Nc1cnccc1Nc1ccncc1
inactive: [1] 96 % of control | [2] 96 % of control

COc1ccc(NC(=O)Nc2ccc(Cl)cc2)cc1
inactive: [3] 97 % of control | [4] 104 % of control | [5] 98 % of control | [6] 104 % of control | endpoint: mean survival time, dose: 400.0 mg/kg/injection, schedule: Q01DX009 (ip), vehicle: Klucel (hydroxypropylcellulose) (HPC) 93 % of control | [7] 106 % of control

O=C1C2CCCC3CCCC(C(=O)N1NC1CCCCC1)C32 (centres undefined)
inactive: endpoint: mean survival time, dose: 100.0 mg/kg/injection, schedule: Q04DX002 (ip), vehicle: saline with Tween-80 93 % of control | endpoint: mean survival time, dose: 200.0 mg/kg/injection, schedule: Q04DX002 (ip), vehicle: saline with Tween-80 86 % of control

Cc1cnc(NS(=O)(=O)c2ccc(N)cc2)nc1-c1ccccc1O
inactive: endpoint: mean survival time, dose: 100.0 mg/kg/injection, schedule: Q04DX002 (ip), vehicle: Klucel (hydroxypropylcellulose) (HPC) 98 % of control | endpoint: mean survival time, dose: 200.0 mg/kg/injection, schedule: Q04DX002 (ip), vehicle: Klucel (hydroxypropylcellulose) (HPC) 98 % of control | endpoint: mean survival time, dose: 400.0 mg/kg/injection, schedule: Q04DX002 (ip), vehicle: Klucel (hydroxypropylcellulose) (HPC) 91 % of control

CC(=O)Oc1cc(C(C)C)c(OCCN(C)C)cc1C
inactive: endpoint: mean survival time, dose: 6.25 mg/kg/injection, schedule: Q01DX009 (ip), vehicle: saline 94 % of control | endpoint: mean survival time, dose: 12.5 mg/kg/injection, schedule: Q01DX009 (ip), vehicle: saline 98 % of control | endpoint: mean survival time, dose: 25.0 mg/kg/injection, schedule: Q01DX009 (ip), vehicle: saline 100 % of control

O=C1C=C[C@H](O)[C@@]2(CO)O[C@@H]12
inactive: endpoint: median survival time, dose: 0.62 mg/kg/injection, schedule: Q01DX009 (ip), vehicle: saline with Tween-80 101 % of control | endpoint: median survival time, dose: 1.25 mg/kg/injection, schedule: Q01DX009 (ip), vehicle: saline with Tween-80 108 % of control | endpoint: median survival time, dose: 2.5 mg/kg/injection, schedule: Q01DX009 (ip), vehicle: saline with Tween-80 113 % of control | endpoint: median survival time, dose: 5.0 mg/kg/injection, schedule: Q01DX009 (ip), vehicle: saline with Tween-80 120 % of control | endpoint: median survival time, dose: 10.0 mg/kg/injection, schedule: Q01DX009 (ip), vehicle: saline with Tween-80 120 % of control

CCC(=O)Nc1ccc(C)cc1C
inactive: [3] 92 % of control | [4] 97 % of control | [5] 94 % of control | [6] 107 % of control | [7] 96 % of control

CC(C)[CH2][Sn](=[O])[OH]
inactive: endpoint: mean survival time, dose: 50.0 mg/kg/injection, schedule: Q01DX009 (ip), vehicle: saline 96 % of control | endpoint: mean survival time, dose: 100.0 mg/kg/injection, schedule: Q01DX009 (ip), vehicle: saline 100 % of control | endpoint: mean survival time, dose: 200.0 mg/kg/injection, schedule: Q01DX009 (ip), vehicle: saline 100 % of control

O=S(=O)(O)N(O)S(=O)(=O)O
inactive: endpoint: mean survival time, dose: 100.0 mg/kg/injection, schedule: Q04DX002 (ip), vehicle: saline 97 % of control | endpoint: mean survival time, dose: 100.0 mg/kg/injection, schedule: Q04DX003 (ip), vehicle: saline 97 % of control | endpoint: mean survival time, dose: 200.0 mg/kg/injection, schedule: Q04DX002 (ip), vehicle: saline 97 % of control | endpoint: mean survival time, dose: 200.0 mg/kg/injection, schedule: Q04DX003 (ip), vehicle: saline 90 % of control | endpoint: mean survival time, dose: 400.0 mg/kg/injection, schedule: Q04DX002 (ip), vehicle: saline 102 % of control

CCOc1ccc(/C=N/NC(=O)c2cccc3ccccc23)cc1OCC
inactive: endpoint: mean survival time, dose: 100.0 mg/kg/injection, schedule: Q01DX001 (ip), vehicle: saline 90 % of control | endpoint: mean survival time, dose: 400.0 mg/kg/injection, schedule: Q01DX001 (ip), vehicle: saline 90 % of control

COC(=O)c1cc([N+](=O)[O-])cc2ccccc12
inactive: [3] 99 % of control | [4] 105 % of control | [5] 96 % of control | [6] 94 % of control | [7] 97 % of control
